According to US20250313556A1, “CERTAIN CHEMICAL ENTITIES, COMPOSITIONS, AND METHODS” (MRJA THERAPEUTICS, INC., priority 2022, published 2025):

Biological target: c-KIT (Homo sapiens, UniProt P10721)
Assay: c-KIT ADP-Glo biochemical assay
Procedure: The inhibitory activity against c-KIT was measured using ADP-Glo assay. The percent (%) inhibition at each concentration of compound is calculated based on and relative to the luminescence signal in the Max and Min control wells contained within each assay plate. The Max control wells contain enzyme and substrate as 0% inhibition, and the Min control wells only contain substrate without enzyme as 100% inhibition. The concentrations and % inhibition values for tested compounds are plotted and the concentration of compound required for 50% inhibition (IC50) is determined with a four-parameter logistic dose response equation. The ability of the compounds in Table 1 to inhibit c-KIT was determined.

Sequence of c-KIT (P10721 26-976): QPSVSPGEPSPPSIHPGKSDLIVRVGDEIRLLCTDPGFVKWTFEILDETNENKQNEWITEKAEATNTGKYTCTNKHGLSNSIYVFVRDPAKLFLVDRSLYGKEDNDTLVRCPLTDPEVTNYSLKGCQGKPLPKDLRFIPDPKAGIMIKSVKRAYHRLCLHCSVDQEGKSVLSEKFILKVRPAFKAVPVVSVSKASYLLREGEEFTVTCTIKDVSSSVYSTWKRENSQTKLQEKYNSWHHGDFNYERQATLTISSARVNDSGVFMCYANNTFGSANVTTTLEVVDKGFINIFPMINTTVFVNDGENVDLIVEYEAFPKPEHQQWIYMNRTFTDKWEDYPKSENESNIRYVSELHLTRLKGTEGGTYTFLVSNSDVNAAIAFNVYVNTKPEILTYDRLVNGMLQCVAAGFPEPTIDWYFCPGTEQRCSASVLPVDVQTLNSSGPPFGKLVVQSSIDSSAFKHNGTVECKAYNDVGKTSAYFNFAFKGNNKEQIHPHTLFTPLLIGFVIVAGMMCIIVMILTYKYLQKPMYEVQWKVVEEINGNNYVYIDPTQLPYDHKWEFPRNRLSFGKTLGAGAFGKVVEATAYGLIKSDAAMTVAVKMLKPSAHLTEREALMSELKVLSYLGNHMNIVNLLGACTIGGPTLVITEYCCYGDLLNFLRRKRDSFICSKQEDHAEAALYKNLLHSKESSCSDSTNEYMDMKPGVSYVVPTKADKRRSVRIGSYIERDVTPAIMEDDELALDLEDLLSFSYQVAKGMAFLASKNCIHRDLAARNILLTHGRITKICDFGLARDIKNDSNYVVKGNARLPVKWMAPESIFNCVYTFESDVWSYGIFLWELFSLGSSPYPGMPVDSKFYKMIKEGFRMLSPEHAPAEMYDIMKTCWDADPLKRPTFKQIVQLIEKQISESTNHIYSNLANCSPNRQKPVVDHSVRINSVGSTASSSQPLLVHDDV

Row | IC50 (class ranges) | IC50 (comparison of prior art compounds (WO 2013/033167) with example 3 (C003)) | SMILES
1 | 1 to 20 µM |  | Cc1c(F)cc(-c2noc([C@H]3C[C@@H]3F)n2)cc1NC(=O)c1cnc2ccccn12 (racemic) [Compound C002, N-(3-fluoro-5-(5-((1R,2S)-2-fluorocyclopropyl)-1,2,4-oxadiazol-3-yl)-2-methylphenyl)imidazo[1,2-a]pyridine-3-carboxamide]
2 | 0.1 to 1 µM |  | COC(=O)N1CCC[C@@H](c2nc(-c3cc(F)c(C)c(NC(=O)c4cnc5ccccn45)c3)no2)C1 [Compound C049, methyl (R)-3-(3-(3-fluoro-5-(imidazo[1,2-a]pyridine-3-carboxamido)-4-methylphenyl)-1,2,4-oxadiazol-5-yl)piperidine-1-carboxylate]
3 | 0.1 to 1 µM |  | Cc1c(F)cc(-c2noc([C@@H]3C[C@H]3F)n2)cc1NC(=O)c1cnc2cc(N3CCOCC3)ccn12 [Compound C050, N-(3-fluoro-5-(5-((1S,2R)-2-fluorocyclopropyl)-1,2,4-oxadiazol-3-yl)-2-methylphenyl)-7-morpholinoimidazo[1,2-a]pyridine-3-carboxamide]
4 | 0.1 to 1 µM |  | COC(=O)N1CC(c2nc(-c3cc(F)c(C)c(NC(=O)c4cnn5ccccc45)c3)no2)C1 [Compound C006, methyl 3-(3-(3-fluoro-4-methyl-5-(pyrazolo[1,5-a]pyridine-3-carboxamido)phenyl)-1,2,4-oxadiazol-5-yl)azetidine-1-carboxylate]
5 | ≤ 0.1 µM |  | COC(=O)N1CC(c2nc(-c3cc(F)c(C)c(NC(=O)c4cnc5cc(C(N)=O)ccn45)c3)no2)C1 [Compound C043, methyl 3-(3-(3-(7-carbamoylimidazo[1,2-a]pyridine-3-carboxamido)-5-fluoro-4-methylphenyl)-1,2,4-oxadiazol-5-yl)azetidine-1-carboxylate]
6 | 0.1 to 1 µM |  | COC(=O)N1CC(c2coc(-c3cc(F)c(C)c(NC(=O)c4cnc5ccccn45)c3)n2)C1 [Compound C047, methyl 3-(2-(3-fluoro-5-(imidazo[1,2-a]pyridine-3-carboxamido)-4-methylphenyl)oxazol-4-yl)azetidine-1-carboxylate]
7 | ≤ 0.1 µM | 0.043 µM | COC(=O)N1CC(c2nc(-c3cc(F)c(C)c(NC(=O)c4cnc5ccccn45)c3)no2)C1 [Compound C003, methyl 3-(3-(3-fluoro-5-(imidazo[1,2-a]pyridine-3-carboxamido)-4-methylphenyl)-1,2,4-oxadiazol-5-yl)azetidine-1-carboxylate]
8 | 0.1 to 1 µM |  | COC(=O)N1CCC[C@@H](c2nc(-c3cc(F)c(C)c(NC(=O)c4cnc5ccccn45)c3F)no2)C1 [Compound C054, methyl (R)-3-(3-(2,5-difluoro-3-(imidazo[1,2-a]pyridine-3-carboxamido)-4-methylphenyl)-1,2,4-oxadiazol-5-yl)piperidine-1-carboxylate]
9 | 0.1 to 1 µM |  | Cc1c(F)cc(-c2noc(C3CC(F)(F)C3)n2)cc1NC(=O)c1cnc2cc(N3CCN(C)CC3)ccn12 [Compound C011, N-(5-(5-(3,3-difluorocyclobutyl)-1,2,4-oxadiazol-3-yl)-3-fluoro-2-methylphenyl)-7-(4-methylpiperazin-1-yl)imidazo[1,2-a]pyridine-3-carboxamide]
10 | 1 to 20 µM |  | COC(=O)N1CC[C@@H](c2nc(-c3cc(F)c(C)c(NC(=O)c4cnc5ccccn45)c3F)no2)C1 [Compound C053, methyl (R)-3-(3-(2,5-difluoro-3-(imidazo[1,2-a]pyridine-3-carboxamido)-4-methylphenyl)-1,2,4-oxadiazol-5-yl)pyrrolidine-1-carboxylate]
11 | 0.1 to 1 µM |  | COCCOC(=O)N1CC(c2nc(-c3cc(F)c(C)c(NC(=O)c4cnc5ccccn45)c3)no2)C1 [Compound C042, 2-methoxyethyl 3-(3-(3-fluoro-5-(imidazo[1,2-a]pyridine-3-carboxamido)-4-methylphenyl)-1,2,4-oxadiazol-5-yl)azetidine-1-carboxylate]
12 | ≤ 0.1 µM |  | COC(=O)N1CC(c2nc(-c3cc(F)c(C)c(NC(=O)c4cnc5cc(OC)ccn45)c3)no2)C1 [Compound C029, methyl 3-(3-(3-fluoro-5-(7-methoxyimidazo[1,2-a]pyridine-3-carboxamido)-4-methylphenyl)-1,2,4-oxadiazol-5-yl)azetidine-1-carboxylate]
13 | 1 to 20 µM |  | COC(=O)N1CC(c2cnc(-c3cc(F)c(C)c(NC(=O)c4cnc5ccccn45)c3)o2)C1 [Compound C051, methyl 3-(2-(3-fluoro-5-(imidazo[1,2-a]pyridine-3-carboxamido)-4-methylphenyl)oxazol-5-yl)azetidine-1-carboxylate]
14 | 0.1 to 1 µM |  | COC(=O)N1CC(c2nc(-c3cc(F)c(C)c(NC(=O)c4cnc5ccccn45)c3)co2)C1 [Compound C045, methyl 3-(4-(3-fluoro-5-(imidazo[1,2-a]pyridine-3-carboxamido)-4-methylphenyl)oxazol-2-yl)azetidine-1-carboxylate]
15 | 1 to 20 µM |  | Cc1c(F)cc(-c2noc(C3CN(C(=O)OC4CC4)C3)n2)cc1NC(=O)c1cnc2ccccn12 [Compound C031, cyclopropyl 3-(3-(3-fluoro-5-(imidazo[1,2-a]pyridine-3-carboxamido)-4-methylphenyl)-1,2,4-oxadiazol-5-yl)azetidine-1-carboxylate]
16 | ≤ 0.1 µM |  | COC(=O)N1CC(c2nc(-c3cc(F)c(C)c(NC(=O)c4cnc5ccc(C(N)=O)cn45)c3)no2)C1 [Compound C040, methyl 3-(3-(3-(6-carbamoylimidazo[1,2-a]pyridine-3-carboxamido)-5-fluoro-4-methylphenyl)-1,2,4-oxadiazol-5-yl)azetidine-1-carboxylate]
17 | ≤ 0.1 µM |  | COC(=O)N1CC(c2nc(-c3cc(F)c(C)c(NC(=O)c4cnc5ccccn45)c3F)no2)C1 [Compound C052, methyl 3-(3-(2,5-difluoro-3-(imidazo[1,2-a]pyridine-3-carboxamido)-4-methylphenyl)-1,2,4-oxadiazol-5-yl)azetidine-1-carboxylate]
18 | ≤ 0.1 µM |  | COC(=O)N1CC(c2nc(-c3cc(F)c(C)c(NC(=O)c4cnc5ccc(N6CCN(C(C)=O)CC6)cn45)c3)no2)C1 [Compound C036, methyl 3-(3-(3-(6-(4-acetylpiperazin-1-yl)imidazo[1,2-a]pyridine-3-carboxamido)-5-fluoro-4-methylphenyl)-1,2,4-oxadiazol-5-yl)azetidine-1-carboxylate]
19 | 0.1 to 1 µM |  | CCOC(=O)N1CC(c2nc(-c3cc(F)c(C)c(NC(=O)c4cnc5ccccn45)c3)no2)C1 [Compound C023, ethyl 3-(3-(3-fluoro-5-(imidazo[1,2-a]pyridine-3-carboxamido)-4-methylphenyl)-1,2,4-oxadiazol-5-yl)azetidine-1-carboxylate]
20 | 0.1 to 1 µM |  | COC(=O)N1CC(c2nc(-c3cc(F)c(C)c(NC(=O)c4cnc5ccc(OC)cn45)c3)no2)C1 [Compound C027, methyl 3-(3-(3-fluoro-5-(6-methoxyimidazo[1,2-a]pyridine-3-carboxamido)-4-methylphenyl)-1,2,4-oxadiazol-5-yl)azetidine-1-carboxylate]
21 | 0.1 to 1 µM |  | COC(=O)N1CCC[C@H](c2nc(-c3cc(F)c(C)c(NC(=O)c4cnc5ccccn45)c3F)no2)C1 [Compound C056, methyl (S)-3-(3-(2,5-difluoro-3-(imidazo[1,2-a]pyridine-3-carboxamido)-4-methylphenyl)-1,2,4-oxadiazol-5-yl)piperidine-1-carboxylate]
